The values that follow come from patent US9737075B2, “Synergistic benzoxaborole-containing anti-fungicidal composition” (The Penn State Research Foundation, priority 2015, dated 2017).

Values after ≈ are worked out from the molar mass of the structure shown. Like-named read-outs stand apart in the source and are kept apart here.

Common to all, as to format: cell-based
The subject of assay [1] is Mucor sp. Description: Broth microdilution MIC of individual antifungals. As to conditions: individual antifungal, 25% PDB, about 25° C., 72 hours, range over N independent triplicate studies.
Assay [2] has as its system Botrytis cinerea 10-1728. Description: Broth microdilution MIC of individual antifungals. The following applies: Botrytis cinerea 10-1728, individual antifungal, 25% PDB, about 25° C., 72 hours, range over N independent triplicate studies; for MIC: 101728, read-out: Independent MIC. (Broth dilution looks for growth in wells or tubes with falling amounts of substance.)
The subject of assay [3] is Magnaporthe grisea. Description: microbe, parasite or virus in culture. The following applies: for Independent MIC: Magnaporthe grisea, individual antifungal, 25% PDB, about 25° C., 72 hours, range over N independent triplicate studies; for MIC: Pyricularia oryzae, 72 h, read-out: Independent MIC.
Assay [4] relates to Fusarium graminearum. Description: microbe, parasite or virus in culture. The following applies: Fusarium graminearum.
For assay [5], the system named is Sclerotinia homoeocarpa. Description: Broth microdilution MIC of individual antifungals. As to conditions: Sclerotinia homoeocarpa, individual antifungal, 25% PDB, about 25° C., 72 hours, range over N independent triplicate studies; for MIC: Clarireedia homoeocarpa, read-out: Independent MIC.
For assay [6], the system named is Aspergillus fumigatus. The assay can be described thus: Broth microdilution MIC of individual antifungals. As to conditions: individual antifungal, 25% PDB, about 25° C., 72 hours, range over N independent triplicate studies; for MIC: read-out: Independent MIC.
In assay [7] the test system is Colletotrichum orbiculare. The assay can be described thus: Broth microdilution MIC of individual antifungals. The following applies: individual antifungal, 25% PDB, about 25° C., 72 hours, range over N independent triplicate studies; for MIC: read-out: Independent MIC.
Assay [8] deals with Rhizopus sp. Description: Broth microdilution MIC of individual antifungals. The following applies: Rhizopus, 72 h, read-out: Independent MIC.
The subject of assay [9] is Penicillium chrysogenum. The assay can be described thus: Broth microdilution MIC of individual antifungals. The following applies: individual antifungal, 25% PDB, about 25° C., 72 hours, range over N independent triplicate studies, read-out: Independent MIC.
The test system of assay [10] is Alternaria solani. The assay can be described thus: Broth microdilution MIC of individual antifungals. The following applies: individual antifungal, 25% PDB, about 25° C., 72 hours, range over N independent triplicate studies; for MIC: read-out: Independent MIC.
Assay [11] deals with Mycosphaerella zeae-maydis. The assay can be described thus: Broth microdilution MIC of individual antifungals. The following applies: Didymella maydis, individual antifungal, 25% PDB, about 25° C., 72 hours, range over N independent triplicate studies.
Assay [12] concerns Candida albicans. Description: Broth microdilution MIC of individual antifungals. As to conditions: individual antifungal, 25% PDB, about 25° C., 72 hours, range over N independent triplicate studies, read-out: Independent MIC.
The subject of assay [13] is Aspergillus niger. The assay can be described thus: Broth microdilution MIC of individual antifungals. The following applies: for MIC: read-out: Independent MIC.
The subject of assay [14] is Aspergillus flavus. Description: Broth microdilution MIC of individual antifungals. As to conditions: individual antifungal, 25% PDB, about 25° C., 72 hours, range over N independent triplicate studies, read-out: Independent MIC.
Assay [15] has as its system Fusarium verticillioides. Description: Broth microdilution MIC of individual antifungals. The following applies: individual antifungal, 25% PDB, about 25° C., 72 hours, range over N independent triplicate studies, read-out: Independent MIC.
The subject of assay [16] is Botrytis cinerea B17. Description: Broth microdilution MIC of individual antifungals. The following applies: Botrytis cinerea B17; individual antifungal, 25% PDB, about 25° C., 72 hours; range over N independent triplicate studies; read-out: Independent MIC.
Assay [17] concerns Stachybotrys chartarum. Description: Broth microdilution MIC of individual antifungals. The following applies: individual antifungal, 25% PDB, about 25° C., 72 hours, range over N independent triplicate studies, read-out: Independent MIC.
In assay [18] the test system is Aureobasidium pullulans. The assay can be described thus: Broth microdilution MIC of individual antifungals. The following applies: 72 h, read-out: Independent MIC.
Assay [19] deals with Phytophthora pini. Description: Broth microdilution MIC of individual antifungals. As to conditions: individual antifungal, 25% PDB, about 25° C., 72 hours, range over N independent triplicate studies.
The mark [20] stands for this setting: individual antifungal, 25% PDB, about 25° C., 72 hours, range over N independent triplicate studies.
Where [21] appears, read: Rhizopus sp., individual antifungal, 25% PDB, about 25° C., 72 hours, range over N independent triplicate studies.

Consider `COc1ccc(C(=CC(=O)N2CCOCC2)c2ccc(Cl)cc2)cc1OC` [Dimethomorph, dimethomorph], for which the MIC in assay [1] is 200 to 400 µg/mL; in assay [2], 100 to 200 µg/mL.
On to `CO/C=C(/C(=O)OC)c1ccccc1COc1cccc(C(F)(F)F)n1` [Picoxystrobin, picoxystrobin], for which the “Independent MIC” value in assay [3] is “(3.13-6.25) μg/mL”; in [1], “(50-200) μg/mL”; in assay [4] (setting [20]) it was “(200-400) μg/mL”; in assay [5] it was 1.56 µg/mL; in [6] it was “(25-50) μg/mL”; in assay [2], “(100-200) μg/mL”.
For `O=[N+]([O-])c1c(Cl)c(Cl)c(Cl)c(Cl)c1Cl` [Quintozene, quintozene], the “Independent MIC” value is “(25-50) μg/mL” in assay [7] and 50 µg/mL in assay [2].
Turning to `Fc1ccc(Oc2ccnc3cc(Cl)cc(Cl)c23)cc1` [Quinoxyfen, quinoxyfen], the MIC lay within 50 to 100 µg/mL in [2] and 100 to 200 µg/mL in assay [8] (setting [21]).
Consider `Cc1cc(C2CC2)nc(Nc2ccccc2)n1` [Cyprodinil, cyprodinil], for which the MIC in assay [9] is 0.025 to 0.048 µg/mL; in [1] it was 50 µg/mL; in [4] (72 h, read-out: Independent MIC), 200 µg/mL (≈ 888 µM); in [5], 0.39 µg/mL; in [10], 100 µg/mL; in assay [11], 1.56 µg/mL. The MIC was 50 µg/mL in assay [12]; 100 to 200 µg/mL in [7]; 3.12 µg/mL in assay [13] (setting [20]); 0.75 to 1.56 µg/mL in assay [14]; 50 to 100 µg/mL in assay [2]; 100 to 200 µg/mL in assay [15].
`CC(C)CC(C)c1sccc1NC(=O)c1cn(C)nc1C(F)(F)F` (stereo not shown) [Penthiopyrad, penthiopyrad]: the MIC in assay [3] is 1.56 µg/mL (≈ 4.34 µM); in [7], 50 to 100 µg/mL; in assay [13] (72 h) it was 0.78 to 1.56 µg/mL; in [14] it was 100 µg/mL; in assay [2], 15 to 25 µg/mL.
For `Cn1cc(C(=O)Nc2ccccc2-c2cc(F)c(F)c(F)c2)c(C(F)F)n1` [Fluxapyroxad, fluxapyroxad], the “Independent MIC” value in assay [3] was 3.13 µg/mL; in [13] (setting [20]) it was “(0.39-0.4) μg/mL”; in [2] it was 6.25 µg/mL.
In the case of `COCC(=O)N(c1c(C)cccc1C)C(C)C(=O)OC` (stereo not shown) [Metalaxyl, metalaxyl], the MIC in assay [5] is 128 to 200 µg/mL; in assay [6], 400 µg/mL; in assay [13] (setting [20]), 400 µg/mL; in assay [14] it was 400 µg/mL; in [16], 50 to 64 µg/mL; in [8] (setting [21]) it was 400 µg/mL.
Regarding `O=C(Nc1ccccc1-c1ccc(Cl)cc1)c1cccnc1Cl` [Boscalid, boscalid], the results for the MIC in [5], in [13] (setting [20]) and in [2] were 0.8 µg/mL, 0.39 to 0.5 µg/mL and 3.12 to 6.25 µg/mL, respectively.
Regarding `O=C(NCCc1ncc(C(F)(F)F)cc1Cl)c1ccccc1C(F)(F)F` [Fluopyram, fluopyram], the MIC in assay [9] is 0.1 to 0.4 µg/mL; in [1] it was 200 µg/mL; in assay [5], 0.78 to 3.12 µg/mL; in [6], 3.12 to 6.25 µg/mL; in assay [13] (setting [20]), 0.78 to 1.56 µg/mL; in [14], 200 µg/mL. The MIC in assay [2] was 1.56 to 4 µg/mL; in [8] (setting [21]), 200 µg/mL.
`CCOc1ccc(NC(=O)OC(C)C)cc1OCC` [Diethofencarb, diethofencarb]: the MIC in assay [1] lay within 100 to 200 µg/mL; in [5], 100 to 200 µg/mL; in [2] it was 1.5 to 1.56 µg/mL.
As to `CC(C)NC(=O)N1CC(=O)N(c2cc(Cl)cc(Cl)c2)C1=O` [Iprodione, ipordione], the MIC in [3] is 12.5 µg/mL (≈ 37.9 µM); in [1], 1.56 to 6.25 µg/mL; in assay [5], 4 to 10 µg/mL; in [10] it was 3.12 to 6.25 µg/mL; in [17], 25 to 30 µg/mL; in assay [18], 12.5 to 50 µg/mL. Also, the MIC in assay [6] lay within 12.5 to 50 µg/mL; in assay [13] (setting [20]), 50 to 100 µg/mL; in assay [16] it was 16 to 20 µg/mL; in [2], 15 to 25 µg/mL; in [8], 3.12 to 12.5 µg/mL.
Take `C[C@H]1O[C@H](O[C@H]2[C@H](O)[C@@H](O)[C@@H](O)[C@H](O)[C@@H]2O)[C@@H](N)C[C@@H]1NC(=N)C(=O)O` [Kasugamycin]: the “Independent MIC” value in assay [5] was 100 µg/mL; in assay [10], “(100-200) μg/mL”; in assay [19], 200 µg/mL; in assay [2] it was 200 µg/mL.
